Test results as given in publication PMC9519446, “Discovery of an Orally Active Benzoxaborole Prodrug Effective in the Treatment of Chagas Disease in Non-human Primates” (Nature microbiology, 2022).
Several values for one entry are separate records, joined by “and”; a condition that tells them apart may be missing. Identical values can stand only once. Like-named read-outs stand apart in the source and are kept apart here.

How the values were obtained:
[1] = tested on: CPSF3-OE T. cruzi intracellular amastigotes; experiment: microbe, parasite or virus in culture; type: cell-based; details: Trypanosoma cruzi, read-out: CPSF3-OE IC50, intracellular amastigotes
Method: (§1) The in vitro anti-T. cruzi amastiogote activity assay was performed and optimized based on the protocol described previously. The change in tdTomato fluorescence intensity was determined as a measurement of growth over 72 hours of culture. For assaying drug effects on extracellular amastigotes, trypomastigotes were collected from infected Vero cell cultures and converted in acidic media as previously described. Amastigotes (50,000/well) were incubated with 2-fold serial dilutions of compounds for 48 hours. The ATP production was used as an indication of growth in this case, and was measured by ATPlite Luminescence ATP Detection Assay System (PerkinElmer). Both fluorescence and luminescence were read using a BioTek Synergy Hybrid Multi-Mode reader equipped with the software Gene5 v 2.0 (BioTek). The dose-response curve was generated by […] analysis with GraphPad Prism v9.4.0 (GraphPad Software).
The CPSF3 gene was amplified using primers ‘[…]’ and ‘[…]’, and integrated into the pTrex vector [47] by NEBuilder HiFi DNA assembly (New England Biolabs). The construct of pTrex-CPSF was then transfected into Brazil tdTomato epimastigotes and selected by 60ug/ml blasticidin.
To confirm the CPSF overexpression in the selected transfectants, RNA was extracted as previously described and converted to cDNA using SuperScript Reverse Transcriptase (Invitrogen). Quantitative PCR reactions were performed in triplicate on the C1000 Touch Bio-Rad CFX96 real-time PCR detection system for CPSF using primer sets CPSF-1 (5'-[…]-3' and 5'-[…]-3') and CPSF-2 (5'-[…]-3' and 5'-[…]-3') in both control and CPSF over-expressing parasites, and the expression level was normalized to tubulin which was amplified using primers: ‘[…]’ and ‘[…]’.

[2] = In vitro micronucleus study; type: cell-based
T. cruzi Brazil strain = experiment: Mouse cure assays (daily oral treatment, immunosuppression, qPCR of skeletal muscle, blood microscopy, hemoculture); type: in vivo, C57BL/6 mice; details: for Parasite equivalent/ 50 ng of DNA of skeletal muscle: individual mice; for Parasite Equivalents/50ng of DNA of skeletal muscle: individual animals
Method: Male or female C57BL/6 mice were intraperitoneally infected with 10^4 trypomastigotes of the Brazil strain. Mouse infection was confirmed at 25-30 dpi by detection of CD8^+ T cells specific against the T. cruzi TSKb20 peptide in blood. Compounds resuspended in 1% carboxymethyl cellulose and 0.1% Tween 80, were administered daily by gavage at the specified concentrations. In order to optimally detect persistent infection, immune responses in the mice were suppressed by intraperitoneal injection of four doses of cyclophosphamide every 2-3 days (200 mg/kg/day), beginning one week after the end of therapeutic treatment. At the end of the immunosuppression regimen, peripheral blood was checked under light microscope for parasites and cultured in LDNT media. Mouse skeletal muscle samples were obtained at the end of the immunosuppression and processed for T. cruzi-DNA detection by qPCR as previously described.

[3] = tested on: T. cruzi intracellular amastigotes; experiment: In vitro anti-T. cruzi intracellular amastigote growth inhibition assay (tdTomato fluorescence over 72 hours, Vero cells); type: cell-based, Trypanosoma cruzi
Method: as §1

[4] = tested on: representative cytochrome P450 enzymes; experiment: Cytochrome P450 inhibition; type: in vitro ADME; details: 10 uM
[5] = tested on: broad array of mammalian enzymes, receptors and ion channels; experiment: Preliminary safety pharmacology panel; type: binding
[6] = Pharmacokinetic (PK) analysis in NHP; type: in vivo, rhesus macaques (Macaca mulatta); details: 30 mg/kg dose
Method: Mid- and end-regimen PK assessments were also performed. […] Only 1 blood sample was collected at a single time point from each of the 18 animals. […] The plasma samples were provided to Pharmout Labs (Fremont, California) for analysis using LC-MS/MS. […] For calculation of PK parameters, the Cmax (maximum concentrations) and tmax (time to maximum concentrations) were determined by visual inspection of the plasma concentration vs. time curves from the pre-regimen and end-regimen periods. PK calculation was not performed for the mid-regimen PK samples since only 2 time points were collected. The AUC values for the pre- and end-regimen were calculated using the linear-trapezoidal rule with the following equation: AUC(t1-t2)=[(Ct2+Ct1)x(t2-t1)]/2 where t1 and t2 are consecutive sampling time points, AUC(t1-t2) is the fractional area-under-the-curve over time intervals t1 and t2, Ct2 is the concentration at time t2, Ct1 is the concentration at time t1. […] AUC0-∞ was estimated using the following equation: AUC0-∞=[…] Where AUC0-∞ was AUC from zero to infinity, AUClast was the AUC from zero to the last measurable time point, Clast was the concentration at the last measurable time point. AUC0-∞ and t1/2 were not estimated when the terminal elimination phase was not defined. Plasma clearance (CLp) after the IV dose was estimated using the following: CLp = Dose/AUC0-∞.

[7] = tested on: wild-type and peptidase knockout T. cruzi epimastigotes and amastigotes; experiment: LC-MS/MS analysis of intracellular AN15368 and AN14667 (uptake and conversion); type: cell-based, Trypanosoma cruzi; details: epimastigotes 10 uM, amastigotes 50 nM; WT vs CBP KO
Method: The cells were then pelleted and resuspended in 100 μL of PBS. The cell suspension was mixed with 200 μl of acetonitrile and centrifuged at 735 gfor 10 minutes at room temperature. After extraction, the supernatant was further diluted with methanol:water 30:70 (v/v) containing 0.4 nM internal standard (IS) AN14817 to a concentration within the calibration range. Each sample was diluted in triplicate to provide technical replicates and the diluted sample (10 μL) was injected for subsequent LC-MS/MS analysis.
LC-MS/MS analysis was performed on a Waters ACQUITY I-Class UPLC system coupled to a Xevo TQ-S triple quadrupole mass spectrometer. An ACQUITY UPLC BEH C18 column (130 Å, 1.7 μm, 2.1 mm x 50 mm) was used for chromatographic separation, and the column temperature was 40 °C. The mobile phase consisted of water (A) and methanol (B), both containing 0.1% (v/v) formic acid. The following gradient elution was performed at a flow rate of 0.4 mL/min: 0 – 0.5 min, 30% B; 0.5 – 3 min, 30 – 95% B; 3 – 4 min, 95% B; 4 – 4.1 min, 95 – 30% B; and 4.1 – 5 min, 30% B. The MS ionization was carried out in the positive electrospray ionization (ESI) mode with following conditions: capillary voltage = 1.50 kV; desolvation temperature = 500 °C; desolvation gas flow = 1000 L/h; and nebulizer gas pressure = 7.0 bar. […] Data were processed using TargetLynx v4.1 software (Waters).

[8] = Fig. 3b, mice treated for 40 days
[9] = Fig. 3c, mice treated for 20 days
[10] = Trypanosoma cruzi, Vero, read-out: WT IC50, WT intracellular amastigotes, control of CPSF3-OE comparison
[11] = Trypanosoma cruzi, Vero, in vitro, Fig. 1a, Extended Data Fig. 1a, read-out: T. cruzi IC50

| Compound | IC50 [1] [nM] | genotoxicity, in vitro micronucleus [2] | Parasite equivalent/ 50 ng of DNA of skeletal muscle (T. cruzi Brazil strain; [8]) | Parasite equivalent/ 50 ng of DNA of skeletal muscle (T. cruzi Brazil strain; [9]) | genotoxicity, Ames (Ames study) | IC50 [3, 10] [nM] | IC50 [3, 11] [nM] | inhibition of representative cytochrome P450 enzymes [4] | affinity for mammalian enzymes, receptors and ion channels [5] | further results |
| --- | --- | --- | --- | --- | --- | --- | --- | --- | --- | --- |
| Cc1c(C(=O)NC(C(=O)OCc2ccc(F)c(F)c2)C(C)C)ccc2c1B(O)OC2 (centres unmarked) [AN14353] | 1.9 | non-genotoxic | 0.00339 Parasite equivalent/ 50 ng of DNA and 0.0112 Parasite equivalent/ 50 ng of DNA and 0.00674 Parasite equivalent/ 50 ng of DNA and 0.0326 Parasite equivalent/ 50 ng of DNA and 0.00218 Parasite equivalent/ 50 ng of DNA and 6.96e-5 Parasite equivalent/ 50 ng of DNA and 0.03 Parasite equivalent/ 50 ng of DNA | 3.39 Parasite equivalent/ 50 ng of DNA and 0.89 Parasite equivalent/ 50 ng of DNA and 0.07 Parasite equivalent/ 50 ng of DNA and 1.14 Parasite equivalent/ 50 ng of DNA and 0.69 Parasite equivalent/ 50 ng of DNA and 1.27 Parasite equivalent/ 50 ng of DNA | non-genotoxic | 0.5 | 6 | did not demonstrate significant inhibition | little to no affinity | outcome of cure assay (T. cruzi Brazil strain; 25 mg/kg, 40 day treatment, wild-type mice and immunodeficient mice): could consistently resolve established T. cruzi infections; Parasite Equivalents/50ng of DNA of skeletal muscle (T. cruzi Brazil strain; IFNg KO mice): 0.000877 Parasite Equivalents/50ng of DNA and 0.0011 Parasite Equivalents/50ng of DNA and 0.000197 Parasite Equivalents/50ng of DNA and 0.013 Parasite Equivalents/50ng of DNA and 0.002 Parasite Equivalents/50ng of DNA and 0.00327 Parasite Equivalents/50ng of DNA and 0.004 Parasite Equivalents/50ng of DNA and 0.00265 Parasite Equivalents/50ng of DNA and 0.000622 Parasite Equivalents/50ng of DNA; Parasite Equivalents/50ng of DNA of skeletal muscle (T. cruzi Brazil strain; mice, 10 mg/kg): 0.00752 Parasite Equivalents/50ng of DNA and 0.05 Parasite Equivalents/50ng of DNA and 0.00 Parasite Equivalents/50ng of DNA; Parasite Equivalents/50ng of DNA of skeletal muscle (T. cruzi Brazil strain; mice, 25 mg/kg): 0.00369 Parasite Equivalents/50ng of DNA and 0.00 Parasite Equivalents/50ng of DNA and 0.00185 Parasite Equivalents/50ng of DNA and 0.0154 Parasite Equivalents/50ng of DNA; oral absorption (in words) (Pharmacokinetics in mice; mice, dose proportionality evaluation): solubility-limited absorption; dose proportionality of exposure (Pharmacokinetics in mice; mice, oral): lack of dose |
| Cc1c(C(=O)N[C@H](C(=O)OCC2CCOCC2)C(C)C)ccc2c1B(O)OC2 [AN15368] | 11.8 | non-genotoxic | 0.0182 Parasite equivalent/ 50 ng of DNA and 0.32 Parasite equivalent/ 50 ng of DNA and 0.00408 Parasite equivalent/ 50 ng of DNA and 0.015 Parasite equivalent/ 50 ng of DNA and 0.12 Parasite equivalent/ 50 ng of DNA and 0.09 Parasite equivalent/ 50 ng of DNA and 0.06 Parasite equivalent/ 50 ng of DNA | 0.60 Parasite equivalent/ 50 ng of DNA and 0.12 Parasite equivalent/ 50 ng of DNA and 6.19 Parasite equivalent/ 50 ng of DNA and 0.32 Parasite equivalent/ 50 ng of DNA and 0.45 Parasite equivalent/ 50 ng of DNA | non-genotoxic | 2.4 | 5 | did not demonstrate significant inhibition | little to no affinity | minimal efficacious dose in mice (T. cruzi Brazil strain; 40 day treatment cure assay, Fig 3e): 2.5 mg/kg; Parasite equivalent/ 50 ng of DNA of skeletal muscle (T. cruzi Brazil strain; Fig. 3e, mice treated for 40 days with 2.5 mg/kg, 2.5 mg/kg): 0.7074 Parasite equivalent/ 50 ng of DNA and 0.07409 Parasite equivalent/ 50 ng of DNA and 0.06686 Parasite equivalent/ 50 ng of DNA and 0.2452 Parasite equivalent/ 50 ng of DNA and 0.02329 Parasite equivalent/ 50 ng of DNA and 2.237 Parasite equivalent/ 50 ng of DNA and 0.1466 Parasite equivalent/ 50 ng of DNA; outcome of cure assays (T. cruzi Brazil strain; mice, Fig. 3): cures T. cruzi infection in mice; exposure [6]: 3.5 to 4.7 µg·h/kg; exposure AUC0-last (Pharmacokinetics in mice; mice, 10mg/kg dose): 17.5 µg·h/kg; minimal curative exposure in mice (Pharmacokinetics in mice; mouse, in vivo, 2.5 mg/kg): 4.375 µg·h/kg; accumulation and conversion to cleaved product AN14667 [7]: conversion to the cleaved product in wild-type T. cruzi epimastigotes and amastigotes but not in the KO line; % of maximum ([3]; Fig 5.d, WT, [uM] 0.60): -2%; activity at 0.6 µM ([3]; Trypanosoma cruzi, Vero, 72 h, read-out: % of maximum, Fig 5.d, WT, [uM] 0.60): -2%; IC50 ([3]; Trypanosoma cruzi, Vero, 120 h, read-out: WT IC50, WT intracellular amastigotes, control of CPSF3 mutant comparison, Fig. 5d): 12 nM; IC50 ([3]; Trypanosoma cruzi, Vero, read-out: WT IC50, WT intracellular amastigotes, control of TcCBP KO comparison): 2.4 nM |
